Reference: ChEMBL document CHEMBL3352227, “Synthesis, antimycobacterial and antibacterial evaluation of l-[(1R, 2S)-2-fluorocyclopropyl]fluoroquinolone derivatives containing an oxime functional moiety” (Eur J Med Chem, 2014)
Converted amounts (≈) assume the structure as drawn.

How the values were obtained:
Assay type in all cases: functional
[1] = system: Mycobacterium tuberculosis; assay: Antimycobacterial activity against Mycobacterium tuberculosis H37Rv ATCC 27294 by MABA method
[2] = system: Escherichia coli; assay: Antibacterial activity against Escherichia coli ATCC 25922 after 18 to 24 hrs by standard twofold serial dilution method
[3] = system: Escherichia coli; assay: Antibacterial activity against Escherichia coli 12-1 after 18 to 24 hrs by standard twofold serial dilution method
[4] = system: Escherichia coli; assay: Antibacterial activity against extended-spectrum beta-lactamase producing Escherichia coli 12-2 after 18 to 24 hrs by standard twofold serial dilution method
[5] = system: Escherichia coli; assay: Antibacterial activity against extended-spectrum beta-lactamase producing Escherichia coli 12-3 after 18 to 24 hrs by standard twofold serial dilution method
[6] = system: Escherichia coli; assay: Antibacterial activity against extended-spectrum beta-lactamase producing Escherichia coli 12-14 after 18 to 24 hrs by standard twofold serial dilution method
[7] = system: Escherichia coli; assay: Antibacterial activity against extended-spectrum beta-lactamase producing Escherichia coli 12-15 after 18 to 24 hrs by standard twofold serial dilution method
[8] = system: Klebsiella pneumoniae; assay: Antibacterial activity against Klebsiella pneumoniae 12-1 after 18 to 24 hrs by standard twofold serial dilution method
[9] = system: Klebsiella pneumoniae; assay: Antibacterial activity against Klebsiella pneumoniae 12-2 after 18 to 24 hrs by standard twofold serial dilution method
[10] = system: Klebsiella pneumoniae; assay: Antibacterial activity against Klebsiella pneumoniae 12-4 after 18 to 24 hrs by standard twofold serial dilution method
[11] = system: Klebsiella pneumoniae; assay: Antibacterial activity against extended-spectrum beta-lactamase producin Klebsiella pneumoniae 12-3 after 18 to 24 hrs by standard twofold serial dilution method
[12] = system: Klebsiella pneumoniae; assay: Antibacterial activity against extended-spectrum beta-lactamase producin Klebsiella pneumoniae 12-4 after 18 to 24 hrs by standard twofold serial dilution method
[13] = system: Klebsiella pneumoniae; assay: Antibacterial activity against extended-spectrum beta-lactamase producin Klebsiella pneumoniae 12-7 after 18 to 24 hrs by standard twofold serial dilution method
[14] = system: Klebsiella pneumoniae; assay: Antibacterial activity against extended-spectrum beta-lactamase producin Klebsiella pneumoniae 12-14 after 18 to 24 hrs by standard twofold serial dilution method
[15] = system: Pseudomonas aeruginosa; assay: Antibacterial activity against Pseudomonas aeruginosa 12-12 after 18 to 24 hrs by standard twofold serial dilution method
[16] = system: Pseudomonas aeruginosa; assay: Antibacterial activity against Pseudomonas aeruginosa 12-14 after 18 to 24 hrs by standard twofold serial dilution method
[17] = system: Staphylococcus aureus; assay: Antibacterial activity against Staphylococcus aureus ATCC 25923 after 18 to 24 hrs by standard twofold serial dilution method
[18] = system: Staphylococcus aureus; assay: Antibacterial activity against methicillin-sensitive Staphylococcus aureus 12-1 after 18 to 24 hrs by standard twofold serial dilution method
[19] = system: Staphylococcus aureus; assay: Antibacterial activity against methicillin-sensitive Staphylococcus aureus 12-2 after 18 to 24 hrs by standard twofold serial dilution method
[20] = system: Staphylococcus aureus; assay: Antibacterial activity against methicillin-sensitive Staphylococcus aureus 12-4 after 18 to 24 hrs by standard twofold serial dilution method
[21] = system: Staphylococcus aureus; assay: Antibacterial activity against methicillin-sensitive Staphylococcus aureus 12-5 after 18 to 24 hrs by standard twofold serial dilution method
[22] = system: Staphylococcus aureus; assay: Antibacterial activity against methicillin-resistant Staphylococcus aureus 12-2 after 18 to 24 hrs by standard twofold serial dilution method
[23] = system: Staphylococcus aureus; assay: Antibacterial activity against methicillin-resistant Staphylococcus aureus 12-4 after 18 to 24 hrs by standard twofold serial dilution method
[24] = system: Staphylococcus aureus; assay: Antibacterial activity against methicillin-resistant Staphylococcus aureus 12-5 after 18 to 24 hrs by standard twofold serial dilution method
[25] = system: Staphylococcus epidermidis; assay: Antibacterial activity against methicillin-sensitive Staphylococcus epidermidis 12-1 after 18 to 24 hrs by standard twofold serial dilution method
[26] = system: Staphylococcus epidermidis; assay: Antibacterial activity against methicillin-sensitive Staphylococcus epidermidis 12-3 after 18 to 24 hrs by standard twofold serial dilution method
[27] = system: Staphylococcus epidermidis; assay: Antibacterial activity against methicillin-sensitive Staphylococcus epidermidis 12-6 after 18 to 24 hrs by standard twofold serial dilution method
[28] = system: Staphylococcus epidermidis; assay: Antibacterial activity against methicillin-sensitive Staphylococcus epidermidis 12-8 after 18 to 24 hrs by standard twofold serial dilution method
[29] = system: Staphylococcus epidermidis; assay: Antibacterial activity against methicillin-resistant Staphylococcus epidermidis 12-1 after 18 to 24 hrs by standard twofold serial dilution method
[30] = system: Staphylococcus epidermidis; assay: Antibacterial activity against methicillin-resistant Staphylococcus epidermidis 12-6 after 18 to 24 hrs by standard twofold serial dilution method
[31] = system: Streptococcus pneumoniae; assay: Antibacterial activity against Streptococcus pneumoniae ATCC 49619 after 18 to 24 hrs by standard twofold serial dilution method
[32] = system: Streptococcus pneumoniae; assay: Antibacterial activity against Streptococcus pneumoniae 12-18 after 18 to 24 hrs by standard twofold serial dilution method

SMILES	MIC [1] [µg/mL]	MIC [2] [µg/mL]	MIC [3] [µg/mL]	MIC [4] [µg/mL]	MIC [5] [µg/mL]	MIC [6] [µg/mL]	MIC [7] [µg/mL]	MIC [8] [µg/mL]	MIC [9] [µg/mL]	MIC [10] [µg/mL]	MIC [11] [µg/mL]	MIC [12] [µg/mL]	MIC [13] [µg/mL]	MIC [14] [µg/mL]	MIC [15] [µg/mL]	MIC [16] [µg/mL]	MIC [17] [µg/mL]	MIC [18] [µg/mL]	MIC [19] [µg/mL]	MIC [20] [µg/mL]	further results
CO/N=C1/CCN(c2nc3c(cc2F)c(=O)c(C(=O)O)cn3[C@@H]2C[C@@H]2F)CC1N (stereo partly specified)	4 (≈ 9.82 µM)	0.25 (≈ 0.614 µM)	8 (≈ 19.6 µM)	> 128	16 (≈ 39.3 µM)	> 128	> 128	2 (≈ 4.91 µM)	1 (≈ 2.45 µM)	1 (≈ 2.45 µM)	> 128	64 (≈ 157 µM)	32 (≈ 78.6 µM)	> 128	16 (≈ 39.3 µM)	128 (≈ 314 µM)	1 (≈ 2.45 µM)	2 (≈ 4.91 µM)	2 (≈ 4.91 µM)	1 (≈ 2.45 µM)	MIC [21]: 2 µg/mL (≈ 4.91 µM); MIC [22]: > 128 µg/mL; MIC [23]: > 128 µg/mL; MIC [24]: > 128 µg/mL; MIC [25]: 1 µg/mL (≈ 2.45 µM); MIC [26]: < 0.008 µg/mL; MIC [27]: 1 µg/mL (≈ 2.45 µM); MIC [28]: < 0.008 µg/mL; MIC [29]: > 128 µg/mL; MIC [30]: 1 µg/mL (≈ 2.45 µM); MIC [31]: 1 µg/mL (≈ 2.45 µM); MIC [32]: 4 µg/mL (≈ 9.82 µM)
CO/N=C1/CN(c2nc3c(cc2F)c(=O)c(C(=O)O)cn3[C@@H]2C[C@@H]2F)CC1CN (stereo partly specified)	0.5 (≈ 1.23 µM)	0.06 (≈ 0.147 µM)	0.5 (≈ 1.23 µM)	128 (≈ 314 µM)	32 (≈ 78.6 µM)	64 (≈ 157 µM)	> 128	0.25 (≈ 0.614 µM)	0.25 (≈ 0.614 µM)	0.25 (≈ 0.614 µM)	32 (≈ 78.6 µM)	0.5 (≈ 1.23 µM)	2 (≈ 4.91 µM)	64 (≈ 157 µM)	0.5 (≈ 1.23 µM)	8 (≈ 19.6 µM)	0.015 (≈ 0.0368 µM)	0.125 (≈ 0.307 µM)	0.125 (≈ 0.307 µM)	0.06 (≈ 0.147 µM)	MIC [21]: 0.125 µg/mL (≈ 0.307 µM); MIC [22]: 16 µg/mL (≈ 39.3 µM); MIC [23]: 32 µg/mL (≈ 78.6 µM); MIC [24]: 16 µg/mL (≈ 39.3 µM); MIC [25]: 0.125 µg/mL (≈ 0.307 µM); MIC [26]: 0.5 µg/mL (≈ 1.23 µM); MIC [27]: 0.125 µg/mL (≈ 0.307 µM); MIC [28]: 1 µg/mL (≈ 2.45 µM); MIC [29]: 4 µg/mL (≈ 9.82 µM); MIC [30]: 4 µg/mL (≈ 9.82 µM); MIC [31]: 0.125 µg/mL (≈ 0.307 µM); MIC [32]: 0.25 µg/mL (≈ 0.614 µM)
CCO/N=C1/CN(c2nc3c(cc2F)c(=O)c(C(=O)O)cn3[C@@H]2C[C@@H]2F)CC1CN (stereo partly specified)	0.5 (≈ 1.19 µM)	< 0.008	0.06 (≈ 0.142 µM)	64 (≈ 152 µM)	16 (≈ 38 µM)	16 (≈ 38 µM)	128 (≈ 304 µM)	0.03 (≈ 0.0712 µM)	0.06 (≈ 0.142 µM)	0.125 (≈ 0.297 µM)	16 (≈ 38 µM)	8 (≈ 19 µM)	0.125 (≈ 0.297 µM)	32 (≈ 75.9 µM)	0.125 (≈ 0.297 µM)	2 (≈ 4.75 µM)	< 0.008	0.015 (≈ 0.0356 µM)	0.015 (≈ 0.0356 µM)	0.015 (≈ 0.0356 µM)	MIC [21]: 0.015 µg/mL (≈ 0.0356 µM); MIC [22]: 4 µg/mL (≈ 9.49 µM); MIC [23]: 4 µg/mL (≈ 9.49 µM); MIC [24]: 4 µg/mL (≈ 9.49 µM); MIC [25]: < 0.008 µg/mL; MIC [26]: 0.03 µg/mL (≈ 0.0712 µM); MIC [27]: 0.015 µg/mL (≈ 0.0356 µM); MIC [28]: 0.25 µg/mL (≈ 0.593 µM); MIC [29]: 1 µg/mL (≈ 2.37 µM); MIC [30]: 4 µg/mL (≈ 9.49 µM); MIC [31]: 0.03 µg/mL (≈ 0.0712 µM); MIC [32]: 0.06 µg/mL (≈ 0.142 µM)
